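Five concentrations, 48 hours, 96-well plates. GI50 is the concentration that inhibits growth by half.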 Calls of active or inactive are those of the source. Rule as the data show it: active = GI50 up to about 1.1 µM and inactive = higher.
Tests used:
Test in all cases: NCI anticancer screen, dose series, 48 h
SF-295 = tested on: SF-295
OVCAR-5 = tested on: OVCAR-5
KM12 = tested on: KM12
HCT-116 = tested on: HCT-116
SW-620 = tested on: SW-620
MCF7 = tested on: MCF7
UACC-257 = tested on: UACC-257
NCI-H522 = tested on: NCI-H522
SF-268 = tested on: SF-268
HOP-62 = tested on: HOP-62
SNB-75 = tested on: SNB-75
IGROV-1 = tested on: IGROV-1
OVCAR-3 = tested on: OVCAR-3
OVCAR-4 = tested on: OVCAR-4
SK-MEL-28 = tested on: SK-MEL-28
SNB-19 = tested on: SNB-19
COLO 205 = tested on: COLO 205
OVCAR-8 = tested on: OVCAR-8
HT-29 = tested on: HT-29
SK-MEL-2 = tested on: SK-MEL-2

Compound	GI50 (SF-295)	GI50 (OVCAR-5)	GI50 (KM12)	GI50 (HCT-116)	GI50 (SW-620)	GI50 (MCF7)	GI50 (UACC-257)	GI50 (NCI-H522)	GI50 (SF-268)	GI50 (HOP-62)	GI50 (SNB-75)	GI50 (IGROV-1)	GI50 (OVCAR-3)	GI50 (OVCAR-4)	GI50 (SK-MEL-28)	GI50 (SNB-19)	GI50 (COLO 205)	GI50 (OVCAR-8)	GI50 (HT-29)	GI50 (SK-MEL-2)
CCc1c(O)c2c(c(O)c1C(C)=O)C(=O)c1c(cc(O)c(C(=O)O)c1C(=O)O)C2=O	> 100 µM (inactive)	> 100 µM (inactive)	> 100 µM (inactive)	> 100 µM (inactive)	> 100 µM (inactive)	> 100 µM (inactive)	> 100 µM (inactive)	> 100 µM (inactive)	> 100 µM (inactive)	> 100 µM (inactive)	> 100 µM (inactive)	> 100 µM (inactive)	> 100 µM (inactive)	> 100 µM (inactive)	> 100 µM (inactive)	> 100 µM (inactive)	> 100 µM (inactive)	> 100 µM (inactive)	> 100 µM (inactive)	> 100 µM (inactive)
Cc1c2cnccc2c(C)c2c1c1ccccc1n2CC1CO1 (configuration not stated)	1.33 µM (inactive)	2.05 µM (inactive)	1.58 µM (inactive)	0.327 µM (active)	0.345 µM (active)	0.0422 µM (active)	1.75 µM (inactive)	1.07 µM (active)	0.323 µM (active)	1.64 µM (inactive)	0.652 µM (active)	1.48 µM (inactive)	1.57 µM (inactive)	1.99 µM (inactive)	1.71 µM (inactive)	2.04 µM (inactive)	1.16 µM (inactive)	0.443 µM (active)	1.72 µM (inactive)	1.66 µM (inactive)
COC(=O)c1cccc(N[C@@H]2c3cc4c(cc3C(c3cc(OC)c(O)c(OC)c3)[C@H]3C(=O)OCC32)OCO4)c1 (some centres not stated)	0.543 µM (active)	6.67 µM (inactive)	2.37 µM (inactive)	0.682 µM (active)	1.97 µM (inactive)	0.442 µM (active)	0.659 µM (active)	1.4 µM (inactive)	1.4 µM (inactive)	0.239 µM (active)	1.87 µM (inactive)	3.13 µM (inactive)	2.07 µM (inactive)	7.08 µM (inactive)	2.67 µM (inactive)	0.755 µM (active)	1.33 µM (inactive)	1.73 µM (inactive)	1.69 µM (inactive)	4.69 µM (inactive)
O=C1C(Br)=CC2([N+](=O)[O-])CCNC3=C(C4=NCCc5c[nH]c(c54)C3=O)C2=C1Br (configuration not stated)	1.91 µM (inactive)	1.1 µM (active)	3.96 µM (inactive)	0.317 µM (active)	0.0497 µM (active)	0.0562 µM (active)	0.279 µM (active)	0.1 µM (active)	2.26 µM (inactive)	3.58 µM (inactive)	8.39 µM (inactive)	1.99 µM (inactive)	0.0546 µM (active)	1.76 µM (inactive)	3.26 µM (inactive)	2.81 µM (inactive)	0.0178 µM (active)	0.365 µM (active)	0.553 µM (active)	1.65 µM (inactive)
CSc1nc2c(c(N3CCOCC3)n1)C(O)n1c(nc3ccccc31)S2 (configuration not stated)	33.5 µM (inactive)	> 100 µM (inactive)	53.6 µM (inactive)	> 100 µM (inactive)	32.1 µM (inactive)	23 µM (inactive)	> 100 µM (inactive)	24.8 µM (inactive)	26.2 µM (inactive)	40.6 µM (inactive)	30.5 µM (inactive)	> 100 µM (inactive)	69.2 µM (inactive)	41 µM (inactive)		17.5 µM (inactive)	0.055 µM (active)	31.1 µM (inactive)	> 100 µM (inactive)	29.7 µM (inactive)
CC(Cc1ccccc1)Nc1ncnc2c1ncn2C1OC(CO)CC1O (configuration not stated)	1.93 µM (inactive)	> 100 µM (inactive)	> 100 µM (inactive)	> 100 µM (inactive)	> 100 µM (inactive)	0.611 µM (active)	> 100 µM (inactive)	> 100 µM (inactive)	> 100 µM (inactive)	> 100 µM (inactive)	> 100 µM (inactive)	> 100 µM (inactive)	> 100 µM (inactive)	> 100 µM (inactive)	> 100 µM (inactive)	> 100 µM (inactive)	> 100 µM (inactive)	> 100 µM (inactive)	> 100 µM (inactive)	> 100 µM (inactive)
NC(C/C=C/P(=O)(O)O)C(=O)O (configuration not stated)	> 100 µM (inactive)	> 100 µM (inactive)	> 100 µM (inactive)	> 100 µM (inactive)	> 100 µM (inactive)	> 100 µM (inactive)	> 100 µM (inactive)	> 100 µM (inactive)	58.1 µM (inactive)		14.1 µM (inactive)	> 100 µM (inactive)	> 100 µM (inactive)	> 100 µM (inactive)	> 100 µM (inactive)	> 100 µM (inactive)	> 100 µM (inactive)	> 100 µM (inactive)	> 100 µM (inactive)	> 100 µM (inactive)
CN1CCC(C(O)(c2ccccc2)c2ccc(Br)cc2)CC1 (configuration not stated)	17.9 µM (inactive)	21.2 µM (inactive)	18.6 µM (inactive)	18.8 µM (inactive)	21.4 µM (inactive)	22.6 µM (inactive)	15.4 µM (inactive)	15.5 µM (inactive)	31.5 µM (inactive)	24.8 µM (inactive)	16.6 µM (inactive)	25.9 µM (inactive)	39.4 µM (inactive)	22.7 µM (inactive)	16.7 µM (inactive)	45.2 µM (inactive)	15.3 µM (inactive)	50.2 µM (inactive)	20 µM (inactive)	16.2 µM (inactive)
CCCN(CCC)c1cc2c(cc1F)c(=O)c(C(=O)O)cn2-c1ccc(N2CCN(C)CC2)cn1	17.8 µM (inactive)	18.8 µM (inactive)	15.1 µM (inactive)	15.3 µM (inactive)	16.2 µM (inactive)	14.9 µM (inactive)	20.2 µM (inactive)	11.5 µM (inactive)	15.6 µM (inactive)	16.7 µM (inactive)	14.7 µM (inactive)	12.9 µM (inactive)	15.7 µM (inactive)	19.2 µM (inactive)	19.6 µM (inactive)	15.3 µM (inactive)	13.4 µM (inactive)	14.3 µM (inactive)	14.7 µM (inactive)	
Cc1nc2ccccc2c(=O)n1Nc1ccc(C(=O)O)cc1	> 100 µM (inactive)	> 100 µM (inactive)	> 100 µM (inactive)	> 100 µM (inactive)	> 100 µM (inactive)	> 100 µM (inactive)	> 100 µM (inactive)	> 100 µM (inactive)	> 100 µM (inactive)	> 100 µM (inactive)	> 100 µM (inactive)	> 100 µM (inactive)	> 100 µM (inactive)	> 100 µM (inactive)	> 100 µM (inactive)	> 100 µM (inactive)	> 100 µM (inactive)	> 100 µM (inactive)	> 100 µM (inactive)	> 100 µM (inactive)
C=C(C)[C@@H]1CC[C@@H]2C(=CC[C@]3(C)C([C@H](C)CC/C=C(/C)C(=O)O)CC[C@@]23C)[C@@]1(C)CCC(=O)O (some centres not stated)	30.3 µM (inactive)	30.5 µM (inactive)	23.4 µM (inactive)	22.3 µM (inactive)	29 µM (inactive)	39.6 µM (inactive)	23.8 µM (inactive)	22.7 µM (inactive)	37.7 µM (inactive)	52.8 µM (inactive)	34.4 µM (inactive)	28.2 µM (inactive)	19.9 µM (inactive)	36.6 µM (inactive)	27.9 µM (inactive)	34 µM (inactive)	22.6 µM (inactive)	34.4 µM (inactive)	21.7 µM (inactive)	20.2 µM (inactive)
COc1ccc(Cc2nn(C3OC(COC(C)=O)C(OC(C)=O)C(OC(C)=O)C3OC(C)=O)c(=S)n(-c3ccc(OC)cc3)c2=O)cc1 (configuration not stated)	> 100 µM (inactive)	> 100 µM (inactive)	> 100 µM (inactive)	> 100 µM (inactive)	> 100 µM (inactive)	> 100 µM (inactive)	> 100 µM (inactive)	> 100 µM (inactive)	> 100 µM (inactive)	> 100 µM (inactive)	43.5 µM (inactive)	> 100 µM (inactive)	> 100 µM (inactive)	> 100 µM (inactive)	> 100 µM (inactive)	> 100 µM (inactive)	> 100 µM (inactive)	> 100 µM (inactive)	> 100 µM (inactive)	> 100 µM (inactive)
c1ccc2c3c(ccc2c1)-c1[nH]ncc1CCO3	28.4 µM (inactive)	25.8 µM (inactive)	37.2 µM (inactive)	32.4 µM (inactive)	37.8 µM (inactive)	32.9 µM (inactive)	27.7 µM (inactive)	21.8 µM (inactive)	37.8 µM (inactive)	30.6 µM (inactive)	27.5 µM (inactive)	> 52 µM (inactive)	27.7 µM (inactive)	29.7 µM (inactive)	50.8 µM (inactive)	47.1 µM (inactive)	37.2 µM (inactive)	34.4 µM (inactive)	32.5 µM (inactive)	36.1 µM (inactive)

From ChEMBL document CHEMBL1201862, “PubChem BioAssay data set” (2004)
